According to patent EP3939664A1 (priority 2020, dated 2022):

What was measured:
[1] = tested on: SARS-CoV-2; assay: Cell monolayer protection assay (crystal violet staining of virus-induced cell death); format: cell-based, SARS-CoV-2 stock strain NL/2020; set-up: PC Max: unit: uM; details: for minimal effective concentration: Severe acute respiratory syndrome coronavirus 2, Vero C1008, minimum compound concentration protecting Vero-E6 cell monolayer from virus induced cell death, read-out: PC Min; for minimal effective concentration / PC Max: 72 hours, dilutions from 50µM to 780nM tested; for PC Max: maximum compound concentration protecting Vero-E6 cell monolayer from virus induced cell death
[2] = in vitro; details: human, huh7-lunet#3 cells
[3] = tested on: hCoV-229E-GFP virus (Human coronavirus 229E expressing Green Fluorescent Protein); assay: microbe, parasite or virus in culture; format: cell-based; details: Huh7-Lunet#3 cells, 72 hours at 33°C, read-out: reduction of hCoV-229E-GFP propagation
[4] = tested on: SARS-CoV-2; assay: Relative viral RNA content by real time qPCR; format: cell-based; details: for activity at 15 µM: Severe acute respiratory syndrome coronavirus 2, Vero C1008, 15µM compound, viral RNA by qPCR, relative to cells treated only with vehicle (DMSO)

| SMILES | minimal effective concentration [1] | PC Max [1] | viability at 72 h, 10 µM [2] | inhibition at 10 µM [3] | viral RNA levels by qPCR (result in words) [4] | activity at 15 µM [4] | protective activity against SARS-CoV-2 (result in words) ([1]; Figure 1, 0.78-50µM) |
| --- | --- | --- | --- | --- | --- | --- | --- |
| CCCCc1ccc(-c2ccc3nc(-c4ccc(OC)cc4)cc(C(=O)O)c3c2)cc1 [Example 3, 6-(4-butylphenyl)-2-(4-methoxyphenyl)quinoline-4-carboxylic acid] | 50 µM | 50 |  |  |  |  |  |
| COc1ccc(-c2cc(C(=O)O)c3cc(-c4ccc(C(C)(C)C)cc4)ccc3n2)cc1 [Example 4, 6-(4-(tert-butyl)phenyl)-2-(4-methoxyphenyl)quinoline-4-carboxylic acid] | 50 µM | 50 | 107% | 74% |  |  |  |
| CCc1ccc(-c2ccc3nc(-c4ccccc4)cc(C(=O)O)c3c2)cc1 [Example 12, 6-(4-ethylphenyl)-2-phenylquinoline-4-carboxylic acid] | 50 µM | 50 |  |  |  |  |  |
| CC(C)(C)c1ccc(-c2ccc3nc(-c4ccccc4)cc(C(=O)O)c3c2)cc1 [Example 14, 6-(4-(tert-butyl)phenyl)-2-phenylquinoline-4-carboxylic acid] | 50 µM | 50 |  |  |  |  |  |
| O=C(O)c1cc(-c2ccccc2)nc2ccc(-c3ccc(Cl)c(Cl)c3)cc12 [Example 16, 6-(3,4-dichlorophenyl)-2-phenylquinoline-4-carboxylic acid] | 50 µM | 50 |  |  |  |  |  |
| CCc1ccc(-c2ccc(-c3cc(C(=O)O)c4ccccc4n3)cc2)cc1 [Example 19, 2-(4'-ethyl-[1,1'-biphenyl]-4-yl)quinoline-4-carboxylic acid] | 50 µM | 50 |  |  |  |  |  |
| CCCCc1ccc(-c2ccc(-c3cc(C(=O)O)c4ccccc4n3)cc2)cc1 [Example 20, 2-(4'-butyl-[1,1'-biphenyl]-4-yl)quinoline-4-carboxylic acid] | 12.5 µM | 50 |  |  | virtually undetectable levels | 0.001% |  |
| CC(C)(C)c1ccc(-c2ccc(-c3cc(C(=O)O)c4ccccc4n3)cc2)cc1 [Example 21, 2-(4'-(tert-butyl)-[1,1'-biphenyl]-4-yl)quinoline-4-carboxylic acid] | 3.12 µM | 50 |  |  | virtually undetectable levels | 1e-05% | comparable efficacy to remdesivir |
| O=C(O)c1cc(-c2ccc(-c3ccc(Cl)c(Cl)c3)cc2)nc2ccccc12 [Example 23, 2-(3',4'-dichloro-[1,1'-biphenyl]-4-yl)quinoline-4-carboxylic acid] | 50 µM | 50 |  |  |  |  |  |
| O=C(O)c1cc(-c2ccc(-c3cccc(OC(F)(F)F)c3)cc2)nc2ccccc12 [Example 24, 2-(3'-(trifluoromethoxy)-[1,1'-biphenyl]-4-yl)quinoline-4-carboxylic acid] | 50 µM | 50 |  |  |  |  |  |
| CCCCc1ccc(-c2cccc(-c3cc(C(=O)O)c4ccccc4n3)c2)cc1 [Example 27, 2-(4'-butyl-[1,1'-biphenyl]-3-yl)quinoline-4-carboxylic acid] | 25 µM | 50 |  |  |  |  |  |
| CC(C)(C)c1ccc(-c2cccc(-c3cc(C(=O)O)c4ccccc4n3)c2)cc1 [Example 28, 2-(4'-(tert-butyl)-[1,1'-biphenyl]-3-yl)quinoline-4-carboxylic acid] | 25 µM | 50 |  |  |  |  |  |
| CCCCc1ccc(-c2ccc3c(C(=O)O)cc(-c4ccc(OC)cc4)nc3c2)cc1 [Example 33, 7-(4-butylphenyl)-2-(4-methoxyphenyl)quinoline-4-carboxylic acid] | 50 µM | 50 |  |  |  |  |  |
| COc1ccc(-c2cc(C(=O)O)c3ccc(-c4ccc(C(C)(C)C)cc4)cc3n2)cc1 [Example 34, 7-(4-(tert-butyl)phenyl)-2-(4-methoxyphenyl)quinoline-4-carboxylic acid] | 50 µM | 50 |  |  |  |  |  |
| CCc1ccc(-c2cccc3c(C(=O)O)cc(-c4ccc(OC)cc4)nc23)cc1 [Example 42, 8-(4-ethylphenyl)-2-(4-methoxyphenyl)quinoline-4-carboxylic acid] | 50 µM | 50 |  |  |  |  |  |
| COc1ccc(-c2cc(C(=O)O)c3cccc(-c4ccc(C(C)(C)C)cc4)c3n2)cc1 [Example 44, 8-(4-(tert-butyl)phenyl)-2-(4-methoxyphenyl)quinoline-4-carboxylic acid] | 12.5 µM | 50 |  |  | virtually undetectable levels | 0.01% |  |
| COc1ccc(-c2cc(C(=O)O)c3cccc(-c4ccc(Cl)c(Cl)c4)c3n2)cc1 [Example 46, 8-(3,4-dichlorophenyl)-2-(4-methoxyphenyl)quinoline-4-carboxylic acid] | 50 µM | 50 |  |  |  |  |  |
| COc1ccc(-c2cc(C(=O)O)c3cccc(-c4cccc(OC(F)(F)F)c4)c3n2)cc1 [Example 47, 2-(4-methoxyphenyl)-8-(3-(trifluoromethoxy)phenyl)quinoline-4-carboxylic acid] | 50 µM | 50 |  |  |  |  |  |
| CCCOc1ccc(-c2cccc3c(C(=O)O)cc(-c4ccc(OC)cc4)nc23)cc1 [Example 48, 2-(4-methoxyphenyl)-8-(4-propoxyphenyl)quinoline-4-carboxylic acid] | 50 µM | 50 |  |  |  |  |  |
| CCC(CC)COC(=O)[C@H](C)N[P@](=O)(OC[C@H]1O[C@@](C#N)(c2ccc3c(N)ncnn23)[C@H](O)[C@@H]1O)Oc1ccccc1 [Remdesevir, remdesivir, reference compound] | 0.78 µM | 50 |  |  |  |  |  |
